Experimental data taken from patent US8063225B2, “Tricyclic compound derivatives useful in the treatment of neoplastic diseases, inflammatory disorders and immunomodulatory disorders” (Chembridge Corporation, priority 2006, dated 2011).

Assays:
[1] = system: Ba/F3; assay: Cell proliferation inhibition, Cell Titer-Glo, Ba/F3; assay type: cell-based; settings: Mus musculus, BaF3; cell proliferation assay, Ba/F3 cells
From the text: (§1) IGF1R and other tyrosine kinase inhibitors can inhibit the proliferation of certain cancer cell lines indicating their possible therapeutic utility for treating the corresponding cancer types. Cancer cell lines of interest and control normal lines, including CHO, HEK293, BA/F3, COLO205, PC3, DU145, MCF7, Panc1, ACHN, Hep G2, H460, K562, TT, U87-MG, CAOV-3, SK-MEL5, Karpas 299 and human multiple myeloma cell lines H929, MM1s, MM1r, UTMC2, CPM2, KMS11, My5, KMS12PE, My7, JJN3, KMS18, U266, SKMM2, RPMI-8226 are plated in white, clear-bottomed 384-well cell culture plates at 2500-5000 cells per well and supplied with dilutions of tested compounds After a desired period of time (typically 3 days), the number of viable cells is quantitated by using Cell Titer-Glo Luminescent Cell Viability Assay (Promega), a cell proliferation assay system based on detection of total amount of ATP present as a measure of cell metabolic activity. The plated cells are mixed with the Cell Titer-Glo developing reagent and counted in a luminescence multiwell plate reader according to the standard manufacturer's protocol to generate IC50 curves for cell proliferation inhibition. Results are typically reported as percent of growth (% viability =(OD72h(compound)−ODday0))/(OD72h(no compound)−ODday0). Alternatively, viable cells are quantitated by using the conventional colorimetric MTT assay. The MTT assay is based on the cleavage of the yellow tetrazolium salt MTT to purple formazan crystal by metabolic active cells. The formazan is then solubilized, and the concentration determined by optical density at 570 nm. The cells plated and incubated with a compound as described above are supplemented with the solution of MTT and incubated for 2-3 hours. The growth medium is removed and dimethyl sulfoxide is added into each well to dissolve the formazan. The absorbance is measured on an ELISA plate reader with a test wavelength of 570 nm and a background subtraction wavelength of 630 nm to obtain sample signal (OD570-OD630). […] The results are reported in terms of IC50 value for a particular compound and a cell line in the standard 3-day proliferation assay using Cell Titer-Glo. […] The results are reported in terms of IC50 value for a particular compound and a cell line in the standard 3-day proliferation assay using MTT assay.

[2] = system: K562; assay: Cell proliferation inhibition, Cell Titer-Glo, K562; assay type: cell-based; settings: Homo sapiens; cell proliferation assay, K562 cells
From the text: as §1

[3] = biological target: T1, Alk (Homo sapiens, UniProt Q9UM73); assay: Tyrosine kinase assay (Kinase-Glo or AlphaScreen), Alk; settings: biochemical tyrosine kinase assay
T1 construct: 6×His- or GST-tagged kinase domain fragments of the corresponding RTKs expressed in baculovirus system; host or cells: baculovirus system
T1 sequence (Q9UM73 1116-1392 limits assumed, species assumed): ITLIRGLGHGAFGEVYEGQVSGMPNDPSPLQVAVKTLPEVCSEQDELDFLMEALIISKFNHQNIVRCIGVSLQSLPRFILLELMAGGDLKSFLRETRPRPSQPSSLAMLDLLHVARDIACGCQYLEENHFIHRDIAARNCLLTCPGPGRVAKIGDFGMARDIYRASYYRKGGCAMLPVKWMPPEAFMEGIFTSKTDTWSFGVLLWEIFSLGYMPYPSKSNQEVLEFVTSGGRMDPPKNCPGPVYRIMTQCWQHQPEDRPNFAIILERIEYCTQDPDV
Method: (§2) To determine inhibition of several tyrosine kinases, such as IGF1R, InsR, Alk, TrkA and Jak2, kinase assays are conducted using either Kinase-Glo (Promega) or AlphaScreen (PerkinElmer) kinase assay platforms. The Kinase-Glo Luminescent Kinase Assay is a homogeneous method for measuring kinase activity by determining the amount of ATP remaining after a kinase reaction. The luminescent signal is proportional to the amount of ATP and inversely proportional to the amount of kinase activity. Tyrosine kinase PT66 AlphaScreen Assay is a high-sensitivity homogeneous, anti-phosphotyrosine antibody-mediated luminescent proximity method measuring, incorporation of phosphate in synthetic poly(Glu-Tyr) substrate. The kinase preparations used consist of purified recombinant, 6×His- or GST-tagged kinase domain fragments of the corresponding RTKs expressed in baculovirus system.
(§3) The IGF1R tyrosine kinase is assayed in Kinase-Glo ATP depletion assay using the synthetic polymer poly(Glu-Tyr, 4:1) (Sigma Chemicals) as a phosphoacceptor substrate. Each reaction mixture consists of a total volume of 10 μl and contains 40 ng of the enzyme, 5 μg of poly(Glu-Tyr), 10 μM of ATP and variable concentrations of test compounds. The mixtures also contain 50 mM Tris-HCl, pH 7.5; 5 mM MgCl2; 5 mM MnCl2; 2 mM DTT and 0.01% Tween 20. The reaction mixtures are incubated at 37° C. for 60 minutes and residual concentration of ATP in the mixture is determined by adding luciferase-containing Kinase-Glo (Promega) development reagent and counting luminescence levels using Fusion Universal Microplate Analyzer (PerkinElmer). Tested compounds are dissolved in dimethyl sulfoxide to a stock concentration of 10 mM and are typically evaluated in the assay at eight concentrations in 1 nM to 20 μM range, each in quadruplicate. […] IC50 values are derived by non-linear regression analysis using Prism 3.0 software (Graphpad Software). Other tyrosine kinases are assayed according to the same protocol after titrating amount of the enzyme to provide optimal signal-to-noise ratio and no more than 30% of total ATP consumption in the reaction conditions used.
(§4) The IGF1R tyrosine kinase is assayed in Phosphotyrosine (PT66 or PT 100) AlphaScreen chemiluminescent assay (PerkinElmer) according to the manufacturerer's recommendations. Each kinase reaction mixture consists of a total volume of 15 μl and contains 0.1-1 ng of the enzyme, 7 ng of biotinylated poly(Glu-Tyr) (Cis-Bio), 10 μM of ATP and variable concentrations of test compounds. The mixtures also contain 50 mM Tris-HCl, pH 7.5; 5 mM MgCl2; 5 mM MnCl2; 2 mM DTT and 0.01% Tween 20. The reaction mixtures are incubated at room temperature for 30 minutes. Ten (10) μl of the mixture of […] and donor beads (as supplied by the manufacturer) is then added to the reaction and the incubation is continued for an additional 60 minutes.

[4] = biological target: T2, Jak2 (Homo sapiens, UniProt O60674); assay: Tyrosine kinase assay (Kinase-Glo or AlphaScreen), Jak2; settings: biochemical tyrosine kinase assay
T2 construct: 6×His- or GST-tagged kinase domain fragments of the corresponding RTKs expressed in baculovirus system; host or cells: baculovirus system
T2 sequence (O60674 849-1124 limits assumed, species assumed): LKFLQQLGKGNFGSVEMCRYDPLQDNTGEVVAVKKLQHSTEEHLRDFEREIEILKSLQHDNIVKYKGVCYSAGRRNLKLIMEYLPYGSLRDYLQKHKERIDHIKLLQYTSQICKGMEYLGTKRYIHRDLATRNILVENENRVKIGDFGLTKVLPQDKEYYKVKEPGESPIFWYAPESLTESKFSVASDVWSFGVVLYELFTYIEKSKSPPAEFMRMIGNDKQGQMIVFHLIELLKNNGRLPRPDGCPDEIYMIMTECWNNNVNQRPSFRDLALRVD
Method: as §2, §3, §4

[5] = biological target: T3, InsR (Homo sapiens, UniProt P06213); assay: Tyrosine kinase assay (Kinase-Glo or AlphaScreen), InsR; settings: biochemical tyrosine kinase assay
T3 construct: 6×His- or GST-tagged kinase domain fragments of the corresponding RTKs expressed in baculovirus system; host or cells: baculovirus system
T3 sequence (P06213 1023-1298 limits assumed, species assumed): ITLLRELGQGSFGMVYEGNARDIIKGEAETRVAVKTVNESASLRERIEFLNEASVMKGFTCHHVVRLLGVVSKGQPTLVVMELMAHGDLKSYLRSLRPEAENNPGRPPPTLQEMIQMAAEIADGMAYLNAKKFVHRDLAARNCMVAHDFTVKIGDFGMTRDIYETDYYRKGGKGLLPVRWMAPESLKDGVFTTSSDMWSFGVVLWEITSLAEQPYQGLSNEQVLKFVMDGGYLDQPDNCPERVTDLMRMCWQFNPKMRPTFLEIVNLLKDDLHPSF
Method: as §2, §3, §4

[6] = biological target: T4, IGF1R tyrosine kinase (Homo sapiens, UniProt P08069); assay: IGF1R tyrosine kinase assay (Kinase-Glo ATP depletion or PT66/PT100 AlphaScreen); settings: biochemical tyrosine kinase assay
T4 construct: 6×His- or GST-tagged kinase domain fragments of the corresponding RTKs expressed in baculovirus system; host or cells: baculovirus system
T4 sequence (P08069 999-1274 limits assumed): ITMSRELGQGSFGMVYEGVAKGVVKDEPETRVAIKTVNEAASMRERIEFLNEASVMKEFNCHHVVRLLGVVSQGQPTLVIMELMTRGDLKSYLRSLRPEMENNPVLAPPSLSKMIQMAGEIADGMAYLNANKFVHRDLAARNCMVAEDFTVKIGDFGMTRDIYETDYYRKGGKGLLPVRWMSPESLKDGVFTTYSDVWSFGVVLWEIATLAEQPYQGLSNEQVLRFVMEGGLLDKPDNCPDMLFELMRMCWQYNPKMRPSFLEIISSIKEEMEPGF
Method: as §2, §3, §4

[7] = system: Karpas-299; assay: Cell proliferation inhibition, Cell Titer-Glo, Karpas-299; assay type: cell-based; settings: Homo sapiens; cell proliferation assay, Karpas-299 cells
From the text: as §1

| SMILES | IC50 [1] | IC50 [2] | IC50 [3] | IC50 [4] | IC50 [5] | IC50 [6] | IC50 [7] |
| --- | --- | --- | --- | --- | --- | --- | --- |
| CN(C)CC(C)(C)CN1C(=O)c2cc3nc(-c4c(NC[C@@H](O)c5cccc(Cl)c5)ccnc4O)[nH]c3cc2C1=O [compound 60] | > 15 µM | > 15 µM | 5 to 15 µM | 0.5 to 5 µM | 0.5 to 5 µM | 0.5 to 5 µM | > 15 µM |
| COc1cc(C#N)ccc1OC[C@H](O)CNc1ccnc(O)c1-c1nc2cc3c(cc2[nH]1)C(=O)N(C1CCN(C)CC1)C3=O [compound 50] | > 15 µM | > 15 µM | 5 to 15 µM | 0.5 to 5 µM | 5 to 15 µM | 0.5 to 5 µM | > 15 µM |
| Cc1ccc(OCC(O)CNc2ccnc(O)c2-c2nc3cc4c(cc3[nH]2)C(=O)N(CCCn2cccn2)C4=O)c(C)c1 (stereo not shown) [compound 63] | > 15 µM | > 15 µM | 0.5 to 5 µM | > 15 µM | > 15 µM | > 15 µM | > 15 µM |
| CN1CCC(N2C(=O)c3cc4nc(-c5c(NC[C@@H](O)COc6ccc7c(c6)OCO7)ccnc5O)[nH]c4cc3C2=O)CC1 [compound 78] | > 15 µM | 5 to 15 µM | 0.5 to 5 µM | 0.5 to 5 µM | 0.5 to 5 µM | < 0.5 µM | 5 to 15 µM |
| O=C1c2cc3nc(-c4c(NC[C@@H](O)c5cccc(Cl)c5)cc[nH]c4=O)[nH]c3cc2C(=O)N1CCCO [compound 44] | > 15 µM | 5 to 15 µM | > 15 µM | 0.5 to 5 µM | 0.5 to 5 µM | 0.5 to 5 µM | 5 to 15 µM |
| CN1CCC(N2C(=O)c3cc4nc(-c5c(NC[C@@H](O)COc6cccnc6)ccnc5O)[nH]c4cc3C2=O)CC1 [compound 70] | > 15 µM | > 15 µM | 5 to 15 µM | 0.5 to 5 µM | 5 to 15 µM | 5 to 15 µM | > 15 µM |
| CCN(CC)C(=O)c1ccc(OC[C@H](O)CNc2ccnc(O)c2-c2nc3cc4c(cc3[nH]2)C(=O)N(C2CCN(C)CC2)C4=O)c(OC)c1 [compound 51] | > 15 µM | > 15 µM | > 15 µM | > 15 µM | > 15 µM | > 15 µM | > 15 µM |
| CN1CCC(N2C(=O)c3cc4nc(-c5c(NC[C@@H](O)COc6cccc(C#N)c6)ccnc5O)[nH]c4cc3C2=O)CC1 [compound 52] | > 15 µM | > 15 µM | 0.5 to 5 µM | 0.5 to 5 µM | 0.5 to 5 µM | < 0.5 µM | > 15 µM |

The remaining lines, values ahead:

| IC50 [1] | IC50 [2] | IC50 [3] | IC50 [4] | IC50 [5] | IC50 [6] | IC50 [7] | SMILES |
| --- | --- | --- | --- | --- | --- | --- | --- |
| > 15 µM | 5 to 15 µM | 0.5 to 5 µM | 5 to 15 µM | 5 to 15 µM | 0.5 to 5 µM | 5 to 15 µM | Cc1ccc(OC[C@H](O)CNc2cc[nH]c(=O)c2-c2nc3cc4c(cc3[nH]2)C(=O)N(C2CCN(C)CC2)C4=O)c(C(C)(C)C)c1 [compound 80] |
| > 15 µM | > 15 µM | 0.5 to 5 µM | 0.5 to 5 µM | 0.5 to 5 µM | 0.5 to 5 µM | > 15 µM | CN1CCC(N2C(=O)c3cc4nc(-c5c(NC[C@@H](O)Cn6cnc7ccccc76)ccnc5O)[nH]c4cc3C2=O)CC1 [compound 49] |
| > 15 µM | 5 to 15 µM | 5 to 15 µM | 0.5 to 5 µM | 0.5 to 5 µM | 0.5 to 5 µM | > 15 µM | Cc1cccc(OCC(O)CNc2cc[nH]c(=O)c2-c2nc3cc4c(cc3[nH]2)C(=O)N(C2CCN(C)CC2)C4=O)c1 (stereo not shown) [compound 105] |
| > 15 µM | > 15 µM | 5 to 15 µM | 0.5 to 5 µM | 0.5 to 5 µM | 0.5 to 5 µM | > 15 µM | Cc1ccc(OC[C@H](O)CNc2ccnc(O)c2-c2nc3cc4c(cc3[nH]2)C(=O)N(C2CCN(C)CC2)C4=O)cn1 [compound 69] |
| > 15 µM | > 15 µM | > 15 µM | > 15 µM | > 15 µM | > 15 µM | > 15 µM | CC(C)CNCC(O)CNc1ccnc(O)c1-c1nc2cc3c(cc2[nH]1)C(=O)N(C1CCN(C)CC1)C3=O (stereo not shown) [compound 66] |
| > 15 µM | > 15 µM | < 0.5 µM | 0.5 to 5 µM | < 0.5 µM | < 0.5 µM | > 15 µM | CN1CCC(N2C(=O)c3cc4nc(-c5c(NC[C@@H](O)COc6cccc7[nH]ccc67)ccnc5O)[nH]c4cc3C2=O)CC1 [compound 101] |
| > 15 µM | > 15 µM | > 15 µM | > 15 µM | 5 to 15 µM | < 0.5 µM | 5 to 15 µM | Cc1ccc(OC[C@H](O)CNc2ccnc(O)c2-c2nc3cc4c(cc3[nH]2)C(=O)N([C@@H]2CCCN(C)C2)C4=O)c(C)c1 [compound 102] |
| 0.5 to 5 µM | 0.5 to 5 µM | > 15 µM | 5 to 15 µM | 5 to 15 µM | < 0.5 µM | 0.5 to 5 µM | Cc1ccc(OC[C@H](O)CNc2ccnc(O)c2-c2nc3cc4c(cc3[nH]2)C(=O)N([C@H]2CCCN(C)C2)C4=O)c(C)c1 [compound 103] |
| 5 to 15 µM | > 15 µM | 0.5 to 5 µM | 0.5 to 5 µM | < 0.5 µM | < 0.5 µM | 0.5 to 5 µM | COc1ccc(OC[C@H](O)CNc2cc[nH]c(=O)c2-c2nc3c(C)c4c(cc3[nH]2)C(=O)N(C2CCN(C)CC2)C4=O)c(C)c1Cl [compound 138] |
| 5 to 15 µM | 0.5 to 5 µM | 0.5 to 5 µM | 0.5 to 5 µM | 0.5 to 5 µM | 0.5 to 5 µM | 5 to 15 µM | Cc1ccc(SC[C@H](O)CNc2cc[nH]c(=O)c2-c2nc3cc4c(cc3[nH]2)C(=O)N(C2CCN(C)CC2)C4=O)c(C)c1 [compound 79] |
| 0.5 to 5 µM | 0.5 to 5 µM | 5 to 15 µM | 0.5 to 5 µM | 0.5 to 5 µM | 0.5 to 5 µM | 0.5 to 5 µM | CN1CCC(N2C(=O)c3cc4nc(-c5c(NC[C@@H](O)COc6ccc(F)c(Cl)c6)ccnc5O)[nH]c4cc3C2=O)CC1 [compound 74] |
